Assay results as given in patent publication US20260226056A1, “SUBSTITUTED 1H-PYRAZOLE-4-CARBOXAMIDES AS SARM1 INHIBITORS” (DISARM THERAPEUTICS, INC., priority 2023, published 2026).

Target: T1, hSARM1 (Homo sapiens, UniProt Q6SZW1)
T1 construct: This assay makes use of full length SARM1, which encompasses the ARM, SAM and TIR domains; made in house; host or cells: NRK1-HEK293T cells (transient transfection; cleared lysate used as enzyme)
T1 sequence (Q6SZW1 28-724): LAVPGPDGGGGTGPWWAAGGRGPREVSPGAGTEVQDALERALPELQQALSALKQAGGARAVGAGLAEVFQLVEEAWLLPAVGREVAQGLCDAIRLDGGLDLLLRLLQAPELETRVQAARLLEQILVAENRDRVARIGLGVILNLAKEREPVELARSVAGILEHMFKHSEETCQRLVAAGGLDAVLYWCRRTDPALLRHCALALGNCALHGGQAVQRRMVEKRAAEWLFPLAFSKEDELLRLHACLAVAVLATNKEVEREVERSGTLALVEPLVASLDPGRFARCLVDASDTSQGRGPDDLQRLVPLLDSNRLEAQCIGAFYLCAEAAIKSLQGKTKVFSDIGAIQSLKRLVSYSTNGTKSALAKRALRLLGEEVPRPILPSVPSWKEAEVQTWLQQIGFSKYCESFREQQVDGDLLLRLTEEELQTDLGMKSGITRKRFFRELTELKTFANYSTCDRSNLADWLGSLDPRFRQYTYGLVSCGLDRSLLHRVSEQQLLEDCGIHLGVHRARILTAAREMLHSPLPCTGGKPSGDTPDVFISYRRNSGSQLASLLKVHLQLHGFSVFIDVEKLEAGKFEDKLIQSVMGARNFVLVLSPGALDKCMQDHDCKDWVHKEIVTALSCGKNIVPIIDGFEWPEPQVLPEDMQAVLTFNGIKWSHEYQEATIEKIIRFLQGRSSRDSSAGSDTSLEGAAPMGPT
Assay: ARM-SAM-TIR SARM1 IC50 Assay (NADase activity, NAD+ cleavage, RapidFire MS)
Format: biochemical
Conditions: ARM-SAM-TIR lysate 5 μg/mL, 2 hrs. pre-incubation with compound, 5 μM NAD+, 2 hrs. incubation
Protocol: This describes an assay of ARM-SAM-TIR NADase activity and use of this assay to measure the efficacy of compounds of the present invention to block SARM1 mediated NAD+ cleavage. This assay was optimized in such a way as to characterize the efficacy of the compounds of the present invention to inhibit SARM1 activity and to calculate an IC50 value for each compound. This assay makes use of full length SARM1, which encompasses the ARM, SAM and TIR domains.
NRK1-HEK293T cells were seeded onto 150 cm^2 plates at 20×10^6 cells per plate. The next day, the cells were transfected with 15 μg ARM-SAM-TIR expression plasmid (SEQ ID NO: 1 as disclosed in WO 2019/236879, Pages 77-81; Paragraph) [0310]).
The cultures were supplemented with 1 mM NR at time of transfection to minimize toxicity from ARM-SAM-TIR overexpression. Forty-eight hours after transfection, cells were harvested, pelleted by centrifugation at 1,000 rpm (Sorvall ST 16R centrifuge, Thermo Fisher), and washed once with cold PBS (0.01 M phosphate buffered saline NaCl 0.138 M; KCl 0.0027 M; pH 7.4). The cells were resuspended in PBS with protease inhibitors (Complete™ protease inhibitor cocktail, Roche product #11873580001) and cell lysates were prepared by sonication (Branson Sonifer 450, output=3, 20 episodes of stroke). The lysates were centrifuged (12,000×g for 10 min at 4° C.) to remove cell debris and the supernatants (containing ARM-SAM-TIR protein) were stored at −80° C. for later use in the in vitro ARM-SAM-TIR NADase assay (see below). Protein concentration was determined by the Bicinchoninic (BCA) method and used to normalize lysate concentrations.
The enzymatic assay was performed in a 384-well polypropylene plate in Dulbecco's PBS buffer in a final assay volume of 20 μL. ARM-SAM-TIR lysate with a final concentration of 5 μg/mL was pre-incubated with the respective compound at 1% DMSO final assay concentration over 2 hrs. at room temperature. The reaction was initiated by addition of 5 μM final assay concentration of NAD+ as substrate. After a 2 hrs. ambient temperature incubation, the reaction was terminated with 40 μL of stop solution of 7.5% trichloroacetic acid in acetonitrile. The NAD+ and ADPR concentrations were analyzed by a RapidFire High Throughput Mass Spectrometry System (Agilent Technologies, Santa Clara, CA) using an API4000 triple quadrupole mass spectrometer (AB Sciex Framingham, MA).
Compounds having an activity designated as “A” provided an IC50<50 nM; compounds having an activity designated as “B” provided an IC50 51-100 nM; compounds having an activity designated as “C” provided an IC50 101-500 nM; compounds having an activity designated as “D” provided an IC50 501-1000 nM; compounds having an activity designated as “E” provided an IC50>1000 nM.

IC50: < 0.05 µM
SMILES: NC(=O)c1c(-c2ccncc2)n[nH]c1NC(=O)CCc1ccc(Cl)c(F)c1 [Example 14, 5-(3-(4-Chloro-3-fluorophenyl)propanamido)-3-(pyridin-4-yl)-1H-pyrazole-4-carboxamide]
